Source: US9884868B2, “TGF-beta inhibitors” (Rigel Pharmaceuticals, Inc., priority 2015, dated 2018)
Where two headings read alike, the source gives them in different places.

Target: HIS-TGF-βR1 T204D (Homo sapiens (Human), UniProt P36897, T204D)
Assay: HTRF probe displacement assay with HIS-TGF-βR1 T204D
[1] = read-out: TGFbr1 IC50, HTRF probe displacement, 1 nM HIS-TGF-βR1 T204D, 1 hour at room temperature

Chain of HIS-TGF-βR1 T204D (P36897 34-503 T204D): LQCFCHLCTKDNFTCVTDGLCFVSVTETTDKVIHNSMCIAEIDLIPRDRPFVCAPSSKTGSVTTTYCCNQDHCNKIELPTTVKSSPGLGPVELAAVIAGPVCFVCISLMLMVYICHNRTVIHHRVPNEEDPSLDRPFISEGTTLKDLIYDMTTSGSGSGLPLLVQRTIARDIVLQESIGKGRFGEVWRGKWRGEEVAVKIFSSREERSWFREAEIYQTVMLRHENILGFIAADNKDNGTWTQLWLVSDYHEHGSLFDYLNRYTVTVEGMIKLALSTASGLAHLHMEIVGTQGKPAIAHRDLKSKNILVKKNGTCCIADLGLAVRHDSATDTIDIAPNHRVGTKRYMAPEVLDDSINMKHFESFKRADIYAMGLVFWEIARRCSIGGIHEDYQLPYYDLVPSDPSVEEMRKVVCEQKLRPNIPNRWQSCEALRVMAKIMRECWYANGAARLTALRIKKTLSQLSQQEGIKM

Question: `CCn1cnc(-c2ccc(F)cc2)c1-c1ccc2ncc(C(N)=O)n2c1` [160′, 6-(1-ethyl-4-(4-fluorophenyl)-1H-imidazol-5-yl)imidazo[1,2-a]pyridine-3-carboxamide] was tested. Which IC50 [1] did it give?
Answer: Its IC50 is 0.8 nM.

Question: For `NC(=O)c1cnc2ccc(-c3c(-c4ccc(F)cc4)ncn3C[C@H](O)CO)cn12` [161′, (S)-6-(1-(2,3-dihydroxypropyl)-4-(4-fluorophenyl)-1H-imidazol-5-yl)imidazo[1,2-a]pyridine-3-carboxamide], which IC50 [1] is on record?
Answer: Its IC50 is 6.7 nM.

Question: With `NC(=O)c1cnc2ccc(-c3c(-c4ccc(F)cc4)ncn3CCCF)cn12` [162′, 6-(4-(4-fluorophenyl)-1-(3-fluoropropyl)-1H-imidazol-5-yl)imidazo[1,2-a]pyridine-3-carboxamide] as the compound, how does the IC50 [1] read?
Answer: The IC50 was 1.9 nM.

Question: With `NC(=O)c1cnc2ccc(-c3c(-c4ccc(F)cc4)ncn3C[C@@H](O)CO)cn12` [164′, (R)-6-(1-(2,3-dihydroxypropyl)-4-(4-fluorophenyl)-1H-imidazol-5-yl)imidazo[1,2-a]pyridine-3-carboxamide] as the compound, how does the IC50 [1] read?
Answer: Its IC50 is 5.7 nM.

Question: `NC(=O)c1cnc2ccc(-c3c(-c4ccc(F)cc4)ncn3CCCO)cn12` [165′, 6-(4-(4-fluorophenyl)-1-(3-hydroxypropyl)-1H-imidazol-5-yl)imidazo[1,2-a]pyridine-3-carboxamide] was tested. Which IC50 [1] did it give?
Answer: Its IC50 is 4.9 nM.

Question: `CC(C)(O)Cn1cnc(-c2ccc(F)cc2)c1-c1ccc2ncc(C(N)=O)n2c1` [166′, 6-(4-(4-fluorophenyl)-1-(2-hydroxy-2-methylpropyl)-1H-imidazol-5-yl)imidazo[1,2-a]pyridine-3-carboxamide] was tested. Which IC50 [1] did it give?
Answer: The IC50 was 9.1 nM.

Question: Which IC50 [1] does the source give for `CC(C1CC1)n1cnc(-c2ccc(F)cc2)c1-c1ccc2ncc(C(N)=O)n2c1` (stereo not drawn) [167′, 6-(1-(1-cyclopropylethyl)-4-(4-fluorophenyl)-1H-imidazol-5-yl)imidazo[1,2-a]pyridine-3-carboxamide] here?
Answer: The IC50 was 0.6 nM.

Question: For `CC(C)Cn1cnc(-c2ccc(F)cc2)c1-c1ccc2ncc(C(N)=O)n2c1` [168′, 6-(4-(4-fluorophenyl)-1-isobutyl-1H-imidazol-5-yl)imidazo[1,2-a]pyridine-3-carboxamide], which IC50 [1] is on record?
Answer: The IC50 was 1.1 nM.

Question: `CC(C)n1cnc(-c2ccc(F)cc2)c1-c1ccc2ncc(C(N)=O)n2c1` [170′, 6-(4-(4-fluorophenyl)-1-isopropyl-1H-imidazol-5-yl)imidazo[1,2-a]pyridine-3-carboxamide] was tested. Which IC50 [1] did it give?
Answer: Its IC50 is 0.5 nM.

Question: How did the IC50 [1] turn out when `NC(=O)c1cnc2ccc(-c3c(-c4ccc(F)cc4)ncn3C(CO)CO)cn12` [171′, 6-(1-(1,3-dihydroxypropan-2-yl)-4-(4-fluorophenyl)-1H-imidazol-5-yl)imidazo[1,2-a]pyridine-3-carboxamide] was run?
Answer: The IC50 was 8.4 nM.

Question: `NC(=O)c1cnc2ccc(-c3c(-c4ccc(F)cc4)ncn3C3CCC3)cn12` [172′, 6-(1-cyclobutyl-4-(4-fluorophenyl)-1H-imidazol-5-yl)imidazo[1,2-a]pyridine-3-carboxamide] was tested. Which IC50 [1] did it give?
Answer: The IC50 was 0.5 nM.

Question: Which IC50 [1] does the source give for `NC(=O)c1cnc2ccc(-c3c(-c4ccc(F)cc4)ncn3C3COC3)cn12` [173′, 6-(4-(4-fluorophenyl)-1-(oxetan-3-yl)-1H-imidazol-5-yl)imidazo[1,2-a]pyridine-3-carboxamide] here?
Answer: Its IC50 is 6.6 nM.

Question: Which IC50 [1] does the source give for `CCC(C)n1cnc(-c2ccc(F)cc2)c1-c1ccc2ncc(C(N)=O)n2c1` (stereo not drawn) [174′, 6-(1-(sec-butyl)-4-(4-fluorophenyl)-1H-imidazol-5-yl)imidazo[1,2-a]pyridine-3-carboxamide] here?
Answer: Its IC50 is 0.6 nM.

Question: For `CC(CO)n1cnc(-c2ccc(F)cc2)c1-c1ccc2ncc(C(N)=O)n2c1` (stereo not drawn) [175′, 6-(4-(4-fluorophenyl)-1-(1-hydroxypropan-2-yl)-1H-imidazol-5-yl)imidazo[1,2-a]pyridine-3-carboxamide], which IC50 [1] is on record?
Answer: Its IC50 is 2 nM.

Question: `CC(O)Cn1cnc(-c2ccc(F)cc2)c1-c1ccc2ncc(C(N)=O)n2c1` (stereo not drawn) [176′, 6-(4-(4-fluorophenyl)-1-(2-hydroxypropyl)-1H-imidazol-5-yl)imidazo[1,2-a]pyridine-3-carboxamide] was tested. Which IC50 [1] did it give?
Answer: Its IC50 is 5.2 nM.

Question: How did the IC50 [1] turn out when `CCCn1cnc(-c2ccc(F)cc2)c1-c1ccc2ncc(C(N)=O)n2c1` [177′, 6-(4-(4-fluorophenyl)-1-propyl-1H-imidazol-5-yl)imidazo[1,2-b]pyridine-3-carboxamide] was run?
Answer: Its IC50 is 1.1 nM.

Question: For `CCOCCn1cnc(-c2ccc(F)cc2)c1-c1ccc2ncc(C(N)=O)n2c1` [178′, 6-(1-(2-ethoxyethyl)-4-(4-fluorophenyl)-1H-imidazol-5-yl)imidazo[1,2-a]pyridine-3-carboxamide], which IC50 [1] is on record?
Answer: The IC50 was 1.9 nM.

Question: Which IC50 [1] does the source give for `CCC(CO)n1cnc(-c2ccc(F)cc2)c1-c1ccc2ncc(C(N)=O)n2c1` (stereo not drawn) [179′, 6-(4-(4-fluorophenyl)-1-(1-hydroxybutan-2-yl)-1H-imidazol-5-yl)imidazo[1,2-a]pyridine-3-carboxamide] here?
Answer: Its IC50 is 2.2 nM.

Question: With `Cn1cnc(-c2ccc(F)c(Cl)c2)c1-c1ccc2nccn2c1` [181′, 6-(4-(3-chloro-4-fluorophenyl)-1-methyl-1H-imidazol-5-yl)imidazo[1,2-a]pyridine] as the compound, how does the IC50 [1] read?
Answer: Its IC50 is 6 nM.

Question: How did the IC50 [1] turn out when `Fc1ccc(-c2ncn(CCC(F)(F)F)c2-c2ccc3nccn3c2)cc1Cl` [182′, 6-(4-(3-chloro-4-fluorophenyl)-1-(3,3,3-trifluoropropyl)-1H-imidazol-5-yl)imidazo[1,2-a]pyridine] was run?
Answer: The IC50 was 50.8 nM.

Question: `FCCCn1cnc(-c2ccc(F)c(Cl)c2)c1-c1ccc2nccn2c1` [183′, 6-(4-(3-chloro-4-fluorophenyl)-1-(3-fluoropropyl)-1H-imidazol-5-yl)imidazo[1,2-a]pyridine] was tested. Which IC50 [1] did it give?
Answer: The IC50 was 21.6 nM.

Question: For `Fc1ccc(-c2ncn(C3CC(F)(F)C3)c2-c2ccc3nccn3c2)cc1Cl` [184′, 6-(4-(3-chloro-4-fluorophenyl)-1-(3,3-difluorocyclobutyl)-1H-imidazol-5-yl)imidazo[1,2-a]pyridine], which IC50 [1] is on record?
Answer: The IC50 was 54.5 nM.

Question: How did the IC50 [1] turn out when `Fc1ccc(-c2ncn([C@@H]3CCC(F)(F)C3)c2-c2ccc3nccn3c2)cc1Cl` [185′, (R)-6-(4-(3-chloro-4-fluorophenyl)-1-(3,3-difluorocyclopentyl)-1H-imidazol-5-yl)imidazo[1,2-a]pyridine] was run?
Answer: The IC50 was 30.1 nM.

Question: For `Fc1ccc(-c2ncn([C@H]3CCC(F)(F)C3)c2-c2ccc3nccn3c2)cc1Cl` [186′, (S)-6-(4-(3-chloro-4-fluorophenyl)-1-(3,3-difluorocyclopentyl)-1H-imidazol-5-yl)imidazo[1,2-a]pyridine], which IC50 [1] is on record?
Answer: Its IC50 is 228 nM.

Question: `FCCn1cnc(-c2ccc(F)c(Cl)c2)c1-c1ccc2nccn2c1` [187′, 6-(4-(3-chloro-4-fluorophenyl)-1-(2-fluoroethyl)-1H-imidazol-5-yl)imidazo[1,2-a]pyridine] was tested. Which IC50 [1] did it give?
Answer: Its IC50 is 3.3 nM.

Question: How did the IC50 [1] turn out when `N#Cc1cnc2ccc(-c3c(-c4ccc(F)cc4)ncn3C3CNC3)nn12` [190C′, 6-(1-(azetidin-3-yl)-4-(4-fluorophenyl)-1H-imidazol-5-yl)imidazo[1,2-b]pyridazin-3-carbonitrile] was run?
Answer: Its IC50 is 86.2 nM.

Question: Which IC50 [1] does the source give for `NC(=O)c1cnc2ccc(-c3c(-c4ccc(F)cc4)ncn3C3CNC3)nn12` [195B′, 6-(1-(azetidin-3-yl)-4-(4-fluorophenyl)-1H-imidazol-5-yl)imidazo[1,2-b]pyridazine-3-carboxamide] here?
Answer: The IC50 was 45.4 nM.

Question: How did the IC50 [1] turn out when `NCc1cnc2ccc(-c3c(-c4ccc(F)cc4)ncn3CC(F)F)nn12` [196A′, (6-(1-(2,2-difluoroethyl)-4-(4-fluorophenyl)-1H-imidazol-5-yl)imidazo[1,2-b]pyridazin-3-yl)methanamine] was run?
Answer: The IC50 was 20.1 nM.

Question: Which IC50 [1] does the source give for `CNC(=O)c1cnc2ccc(-c3c(-c4ccc(F)cc4)ncn3CC(F)F)nn12` [206′, 6-(1-(2,2-difluoroethyl)-4-(4-fluorophenyl)-1H-imidazol-5-yl)-N-methylimidazo[1,2-b]pyridazine-3-carboxamide] here?
Answer: Its IC50 is 0.9 nM.

Question: Which IC50 [1] does the source give for `CONC(=O)c1cnc2ccc(-c3c(-c4ccc(F)cc4)ncn3CC(F)F)nn12` [209′, 6-(1-(2,2-difluoroethyl)-4-(4-fluorophenyl)-1H-imidazol-5-yl)-N-methoxyimidazo[1,2-b]pyridazine-3-carboxamide] here?
Answer: The IC50 was 0.7 nM.

Question: With `C=Cc1cnc2ccc(-c3c(-c4ccc(F)cc4)ncn3CC(F)F)nn12` [213E′, 6-(1-(2,2-difluoroethyl)-4-(4-fluorophenyl)-1H-imidazol-5-yl)-3-vinylimidazo[1,2-b]pyridazine] as the compound, how does the IC50 [1] read?
Answer: Its IC50 is 1.6 nM.

Question: `Fc1ccc(-c2ncn(CC(F)F)c2-c2ccc3nccn3c2)cc1Cl` [219′, 6-(4-(3-chloro-4-fluorophenyl)-1-(2,2-difluoroethyl)-1H-imidazol-5-yl)imidazo[1,2-a]pyridine] was tested. Which IC50 [1] did it give?
Answer: The IC50 was 9.9 nM.

Question: `Fc1ccc(-c2ncn(CC(F)F)c2-c2ccc3nccn3c2)cc1F` [220′, 6-(1-(2,2-difluoroethyl)-4-(3,4-difluorophenyl)-1H-imidazol-5-yl)imidazo[1,2-a]pyridine] was tested. Which IC50 [1] did it give?
Answer: Its IC50 is 41.4 nM.

Question: `Fc1ccc(-c2ncn(CC(F)F)c2-c2ccc3nccn3c2)c(F)c1` [221′, 6-(1-(2,2-difluoroethyl)-4-(2,4-difluorophenyl)-1H-imidazol-5-yl)imidazo[1,2-a]pyridine] was tested. Which IC50 [1] did it give?
Answer: Its IC50 is 6.8 nM.

Question: For `Fc1ccc(Cl)cc1-c1ncn(CC(F)F)c1-c1ccc2nccn2c1` [222′, 6-(4-(5-chloro-2-fluorophenyl)-1-(2,2-difluoroethyl)-1H-imidazol-5-yl)imidazo[1,2-a]pyridine], which IC50 [1] is on record?
Answer: Its IC50 is 2.9 nM.

Question: Which IC50 [1] does the source give for `Fc1cc(F)c(-c2ncn(CC(F)F)c2-c2ccc3nccn3c2)cc1Cl` [223′, 6-(4-(5-chloro-2,4-difluorophenyl)-1-(2,2-difluoroethyl)-1H-imidazol-5-yl)imidazo[1,2-a]pyridine] here?
Answer: The IC50 was 2.2 nM.

Question: With `N#Cc1cnc2ccc(-c3c(-c4ccc(F)c(F)c4)ncn3CC(F)F)cn12` [226′, 6-(1-(2,2-difluoroethyl)-4-(3,4-difluorophenyl)-1H-imidazol-5-yl)imidazo[1,2-a]pyridine-3-carbonitrile] as the compound, how does the IC50 [1] read?
Answer: The IC50 was 73.2 nM.

Question: `N#Cc1cnc2ccc(-c3c(-c4ccc(F)cc4F)ncn3CC(F)F)cn12` [227′, 6-(1-(2,2-difluoroethyl)-4-(2,4-difluorophenyl)-1H-imidazol-5-yl)imidazo[1,2-a]pyridine-3-carbonitrile] was tested. Which IC50 did it give?
Answer: Its IC50 is 8.1 nM.

Question: `N#Cc1cnc2ccc(-c3c(-c4cc(Cl)ccc4F)ncn3CC(F)F)cn12` [228′, 6-(4-(5-chloro-2-fluorophenyl)-1-(2,2-difluoroethyl)-1H-imidazol-5-yl)imidazo[1,2-a]pyridine-3-carbonitrile] was tested. Which IC50 [1] did it give?
Answer: The IC50 was 3.7 nM.
